From paper PMC5820653, “Detection of a Peptide Biomarker by Engineered Yeast Receptors” (ACS Synthetic Biology, 2018)
Ends that are not written are not given here.

What was measured:
[1] = molecular target: T1, Ste2p mutant receptor Cys1H5 (M54I, C59S) (Saccharomyces cerevisiae, UniProt D6VTK4, C59S/M54I); assay: cell-based; type: cell-based
T1 construct: expressed in transfected cells; host or cells: S. cerevisiae yJB013 (ste2-deleted reporter strain), p416GPD plasmid
Description: (§1) Yeast were grown overnight at 30 °C and 225 rpm in 250 mL Erlenmeyer flasks and then diluted to an OD600 = 0.1 in the appropriate medium, typically CSM-Ura or SDCAA-Ura, or commercially sourced pooled human urine. Immediately after dilution, the peptide ligand was added. The culture was incubated for 2.5 h at 30 °C with 225 rpm shaking. Cells were centrifuged at 2000g for 5 min and supernatant was removed. Cells were resuspended in 1x PBS in preparation for flow cytometry.
(§2) Analytical flow cytometry was performed with the BD LSR II (BD Biosciences, San Jose, USA); yEGFP was read on the Alexa-Flour 488 channel, and mKate was read on the PE-Texas Red channel. Receptor output was measured by dividing the mean GFP fluorescence by the mean RFP fluorescence for a population. EC50 values were calculated by fitting the receptor output to a four-parameter logistic curve, and determining which ligand concentration produced an output equivalent to half of the receptor’s maximum output.
(§3) The dose response curves were modeled to fit the following four-parameter logistic curve: [drawing 2] where a is the minimum value, b is the maximum value, c is the EC50, and d is the hill coefficient. The fluorescent receptor output, y, to a given concentration x of ligand, was determined by the following equation: [drawing 3] where GFP is downstream of the receptor pathway and mKate is constitutively expressed (see Strain and Plasmid Construction, Methods Section).
(§4) Data were fit to the Michaelis–Menten equation: [drawing 4] where the fluorescent receptor output, y, to a given concentration x of ligand, was determined by the following equation: [drawing 5] where GFP is downstream of the receptor pathway and mKate is constitutively expressed (see Strain and Plasmid Construction, Methods Section).

[2] = molecular target: T2, Ste2p mutant receptor Cys1H4 (M54I) (Saccharomyces cerevisiae, UniProt D6VTK4, M54I); assay: cell-based; type: cell-based
T2 construct: expressed in transfected cells; host or cells: S. cerevisiae yJB013 (ste2-deleted reporter strain), p416GPD plasmid
T2 sequence (D6VTK4 whole entry M54I): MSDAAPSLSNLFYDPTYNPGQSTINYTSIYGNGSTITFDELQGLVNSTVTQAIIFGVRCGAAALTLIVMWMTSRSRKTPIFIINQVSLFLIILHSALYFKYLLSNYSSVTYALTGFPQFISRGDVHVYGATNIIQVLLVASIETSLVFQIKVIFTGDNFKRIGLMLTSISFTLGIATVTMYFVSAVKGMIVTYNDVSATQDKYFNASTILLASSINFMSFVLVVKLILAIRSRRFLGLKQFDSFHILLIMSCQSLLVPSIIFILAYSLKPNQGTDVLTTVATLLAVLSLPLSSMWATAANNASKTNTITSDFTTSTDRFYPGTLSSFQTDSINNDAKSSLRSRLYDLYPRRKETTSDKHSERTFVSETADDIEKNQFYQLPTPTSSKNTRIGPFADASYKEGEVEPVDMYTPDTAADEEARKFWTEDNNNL
Description: as §1, §2, §3, §4

[3] = molecular target: T3, Ste2p mutant receptor Cys2K2 (Saccharomyces cerevisiae, UniProt D6VTK4, M218K/M54I/Q272Y); assay: cell-based
T3 construct: expressed in transfected cells; host or cells: S. cerevisiae yJB013 (ste2-deleted reporter strain), p416GPD plasmid
T3 sequence (D6VTK4 whole entry M54I/M218K/Q272Y): as the sequence (D6VTK4 whole entry M54I) above, with M218K, Q272Y counted along it
Description: as §1, §2, §3, §4

[4] = molecular target: T4, Ste2p mutant receptor Cys2K3 (Saccharomyces cerevisiae, UniProt D6VTK4, K225T/M218T/M54I/N158Y/S356T); assay: cell-based
T4 construct: expressed in transfected cells; host or cells: S. cerevisiae yJB013 (ste2-deleted reporter strain), p416GPD plasmid
T4 sequence (D6VTK4 whole entry M54I/N158Y/M218T/K225T/S356T): as the sequence (D6VTK4 whole entry M54I) above, with N158Y, M218T, K225T, S356T counted along it
Description: as §1, §2, §3, §4

[5] = molecular target: T5, Ste2p mutant receptor Cys5R7 (Saccharomyces cerevisiae, UniProt D6VTK4, D3N/K225T/L228F/M218T/M54I/N158Y); assay: Receptor Cys5R7 response in trypsinized pooled human urine; type: cell-based; settings: 500 μM ligand; pooled human urine digested with trypsin (50% Tryp-LE, 37 °C overnight, boiled); n = 3
T5 construct: expressed in transfected cells; host or cells: S. cerevisiae yJB013 (ste2-deleted reporter strain), p416GPD plasmid
T5 sequence (D6VTK4 other isoform, or with tags, fused parts or gaps D3N/M54I/N158Y/M218T/K225T/L228F): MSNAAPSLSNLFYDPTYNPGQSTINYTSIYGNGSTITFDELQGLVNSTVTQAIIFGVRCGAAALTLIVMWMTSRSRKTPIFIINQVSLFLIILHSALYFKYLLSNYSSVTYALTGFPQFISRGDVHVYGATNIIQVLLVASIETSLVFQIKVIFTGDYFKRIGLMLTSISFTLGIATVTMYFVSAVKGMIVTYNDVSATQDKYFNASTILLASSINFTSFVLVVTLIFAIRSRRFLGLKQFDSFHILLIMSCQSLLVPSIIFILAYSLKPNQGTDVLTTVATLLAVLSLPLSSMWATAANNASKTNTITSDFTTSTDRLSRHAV
Description: as §1, §2
(§5) When trypsinized urine was used as the sample matrix, urine was mixed with Tryp-LE Express (Life Technologies, Grand Island, USA) to a final concentration of 50%. Mixtures were incubated at 37 °C overnight. Trypsin was inactivated by boiling the samples at 99 °C for 10 min. Samples were stored at −80 °C until assayed.

[6] = molecular target: T6, Ste2p mutant receptor Cys5R2 (Saccharomyces cerevisiae, UniProt D6VTK4, F55L/K225T/M218T/M54I/N158Y/R74K/Y26F); assay: Receptor Cys5R2 response in trypsinized pooled human urine; type: cell-based; settings: 500 μM ligand; pooled human urine digested with trypsin (50% Tryp-LE, 37 °C overnight, boiled); n = 3
T6 construct: expressed in transfected cells; host or cells: S. cerevisiae yJB013 (ste2-deleted reporter strain), p416GPD plasmid
T6 sequence (D6VTK4 1-319 Y26F/M54I/F55L/R74K/N158Y/M218T/K225T): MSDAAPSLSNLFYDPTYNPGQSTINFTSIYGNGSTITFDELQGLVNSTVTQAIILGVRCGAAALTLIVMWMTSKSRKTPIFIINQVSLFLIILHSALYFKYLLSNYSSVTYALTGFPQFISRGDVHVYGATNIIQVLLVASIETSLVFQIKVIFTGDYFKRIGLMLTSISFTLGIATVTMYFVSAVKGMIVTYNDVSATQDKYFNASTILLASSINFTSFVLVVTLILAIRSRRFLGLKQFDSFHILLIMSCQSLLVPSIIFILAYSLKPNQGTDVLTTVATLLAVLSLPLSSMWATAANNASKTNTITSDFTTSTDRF
Description: as §1, §2, §5

[7] = molecular target: T7, Ste2p mutant receptor Cys5R9 (Saccharomyces cerevisiae, UniProt D6VTK4, K225T/L228F/M218T/M54I/N158F/R74K/S121R/T167R/Y26F); assay: cell-based
T7 construct: expressed in transfected cells; host or cells: S. cerevisiae yJB013 (ste2-deleted reporter strain), p416GPD plasmid
T7 sequence (D6VTK4 1-319 Y26F/M54I/R74K/S121R/N158F/T167R/M218T/K225T/L228F): as the sequence (D6VTK4 1-319 Y26F/M54I/F55L/R74K/N158Y/M218T/K225T) above, with L55F, S121R, Y158F, T167R, L228F counted along it
Description: as §1, §2, §3, §4

[8] = molecular target: T5, Ste2p mutant receptor Cys5R7; assay: cell-based
Description: as §1, §2, §3, §4

[9] = molecular target: T6, Ste2p mutant receptor Cys5R2; assay: cell-based
Description: as §1, §2, §3, §4

[10] = molecular target: T8, Ste2p mutant receptor Cys4L3 (Saccharomyces cerevisiae, UniProt D6VTK4, K225T/M218T/M54I/N158F/R74K/T167R/Y26F); assay: cell-based
T8 construct: expressed in transfected cells; host or cells: S. cerevisiae yJB013 (ste2-deleted reporter strain), p416GPD plasmid
T8 sequence (D6VTK4 1-319 Y26F/M54I/R74K/N158F/T167R/M218T/K225T): as the sequence (D6VTK4 1-319 Y26F/M54I/F55L/R74K/N158Y/M218T/K225T) above, with L55F, Y158F, T167R counted along it
Description: as §1, §2, §3, §4

Ste2p (wild type) = molecular target: T9, Ste2p (wild type) (Saccharomyces cerevisiae, UniProt D6VTK4); assay: Yeast GFP/RFP reporter response of native receptor Ste2p to peptide ligand (flow cytometry); type: cell-based
T9 construct: expressed in transfected cells; host or cells: S. cerevisiae YJB015 (MPY578t5 ste2::LEU2, fus1::yeGFP, TRP1::mKate) carrying plasmid pJB036
T9 sequence (D6VTK4 1-431): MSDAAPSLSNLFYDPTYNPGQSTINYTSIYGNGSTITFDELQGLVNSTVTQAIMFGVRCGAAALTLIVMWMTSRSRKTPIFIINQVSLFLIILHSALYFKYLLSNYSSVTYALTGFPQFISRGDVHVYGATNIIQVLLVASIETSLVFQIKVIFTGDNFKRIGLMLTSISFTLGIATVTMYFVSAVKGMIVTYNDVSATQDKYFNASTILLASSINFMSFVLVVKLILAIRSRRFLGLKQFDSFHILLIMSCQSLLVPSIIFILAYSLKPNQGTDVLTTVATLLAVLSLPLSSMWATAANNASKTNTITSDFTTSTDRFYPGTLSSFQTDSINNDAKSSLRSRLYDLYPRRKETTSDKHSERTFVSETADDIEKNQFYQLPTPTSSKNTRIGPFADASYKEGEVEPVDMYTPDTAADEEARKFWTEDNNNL
Description: as §1
as §2, with “output. […]” for “output.”
as §4

[11] = molecular target: T8, Ste2p mutant receptor Cys4L3; assay: Receptor Cys4L3 response in trypsinized pooled human urine; type: cell-based; settings: 500 μM ligand; pooled human urine digested with trypsin (50% Tryp-LE, 37 °C overnight, boiled); n = 3
Description: as §1, §2, §5

[12] = molecular target: T7, Ste2p mutant receptor Cys5R9; assay: Receptor Cys5R9 response in trypsinized pooled human urine; type: cell-based; settings: 500 μM ligand; pooled human urine digested with trypsin (50% Tryp-LE, 37 °C overnight, boiled); n = 3
Description: as §1, §2, §5

[13] = tested on: Round 3 Ste2p mutant receptors; assay: Counter-sorting for specificity: round 3 Ste2p mutants evolved for Variant 56; type: cell-based, Saccharomyces cerevisiae; settings: library sorted with 100 nM Variant 56, counter-sorted against 100 nM α-factor; Supplementary Figure 1
Description: Specificity can be evolved
Supplementary Figure 1- Receptors can be counter-sorted against alpha-factor to increase specificity towards the target ligand- Variant […]
Variant 56 (sequence: […]), which contains a single-amino acid substitution compared to α-factor. In round 1, error prone PCR was performed on Ste2p to create a library of mutant receptors that were subjected to sorting with 100 nM Variant 56. The best mutant isolated from this sort was re-mutagenized to create a new library. The new library was sorted in round 2 with 100 nM Variant 56, and did show an improvement in detecting Variant 56 (panel a). In round 3, the sorted library from round 2 was screened […]
(also on this page, place not known: 0 1 2 3 4 Ste2p 1 2 Fold Increase Over Inac ve Receptor (GFP/RFP) Var. 56 0 1 2 3 4 Ste2p 1 2 3* Fold Increase Over Inac ve Receptor (GFP/RFP) α-factor 0.0 0.2 0.4 0.6 0.8 1.0 Ste2p 1 2 3* Rela ve Ac va on (Var. 56/α-factor) Rounds of Mutagenesis & Screening (a) (c) (b)) […]
(1 picture or pasted object on this page, not shown here)

T1 sequence (D6VTK4 whole entry M54I/C59S): as the sequence (D6VTK4 whole entry M54I) above, with C59S counted along it

Compound	EC50 [1] [nM]	EC50 [2] [nM]	EC50 [3] [nM]	EC50 [4] [nM]	EC50 [8] [nM]	EC50 [9] [nM]	EC50 [10] [nM]	other results
HALALKPGEPMY [Cys1]	129	141						
ALALKPGEPMY [Cys2]			316	117				
ALDFAVGEYNK-NH2 [Cys7 amidated, C-terminally amidated cystatin C tryptic peptide Cys7]								Detection of ligand in pooled human urine [5]: able to detect; Detection of ligand in pooled human urine [6]: able to detect; Ligand concentration at which the receptor responds (sensitivity) [7]: 500 µM; Ligand concentration at which the receptor responds (sensitivity) [8]: 50 µM; Improvement in sensitivity ([8]; receptor Cys5R7 versus Ste2p, same ligand): 20 fold; Ligand concentration at which the receptor responds (sensitivity) [9]: 100 µM; Ligand concentration at which the receptor responds (sensitivity) ([10]; Cys4 value with a new stock of Cys4 peptide): 100 µM; Ligand concentration at which the receptor responds (sensitivity) (Ste2p (wild type); as stated in text / figure legend): 1 mM; Detection of ligand in pooled human urine [11]: able to detect; Ligand concentration at which the receptor responds (sensitivity) ([1]; Supplementary Figure 3C legend): 1 mM; Ligand concentration at which the receptor responds (sensitivity) ([2]; Supplementary Figure 3C legend): 1 mM; Detection of ligand in pooled human urine [12]: able to detect
CSCC[C@H](NC(=O)[C@@H]1CCCN1C(=O)[C@H](CCC(N)=O)NC(=O)CNC(=O)[C@@H]1CCCN1C(=O)[C@H](CCCCN)NC(=O)[C@H](CC(C)C)NC(=O)[C@H](CCC(N)=O)NC(=O)[C@H](CC(C)C)NC(=O)[C@H](Cc1c[nH]c2ccccc12)NC(=O)[C@H](Cc1c[nH]cn1)NC(=O)[C@@H](N)Cc1c[nH]c2ccccc12)C(=O)N[C@@H](Cc1ccc(O)cc1)C(N)=O [α-factor amidated, reference compound]	58.9	50.1	70.8	58.9	6.31	9.12	6.76	EC50 (Ste2p (wild type); log10 of EC50 in M ± error, 4-parameter logistic fit of GFP/RFP output, 2.5 h, 30 °C, flow cytometry, Supplementary Table 1): 229 nM
ALDFAVGEPMK-NH2 [Cys5 amidated]	234000	158000	81300	6170	2690	4900	3470	EC50 [7]: 3470 nM
WHYLQLKPGQPMY [Variant 56, α-factor variant with a single-amino acid substitution]								Activation of round 3 mutants (fold increase GFP/RFP; relative activation Var. 56/α-factor) [13]: preferentially activated
